The values below come from patent US20030073850A1, “4-Imidazole derivatives of benzyl and restricted benzyl sulfonamides, sulfamides, ureas, carbamates, and amides and their use” (priority 1998, published 2003).

What is called Ki is a dissociation constant, usually derived from enzyme kinetics or from competition with a known ligand. Usually melting point stands for the temperature of the solid-liquid transition.

Where two headings read alike, the source gives them in different places.

In series [1] the target is T1, α1b (hamster receptor expressed in mouse fibroblasts) (Mesocricetus auratus, UniProt P18841).
T1 construct: expressed in transfected cells; host or cells: mouse fibroblasts
T1 sequence (P18841 1-515): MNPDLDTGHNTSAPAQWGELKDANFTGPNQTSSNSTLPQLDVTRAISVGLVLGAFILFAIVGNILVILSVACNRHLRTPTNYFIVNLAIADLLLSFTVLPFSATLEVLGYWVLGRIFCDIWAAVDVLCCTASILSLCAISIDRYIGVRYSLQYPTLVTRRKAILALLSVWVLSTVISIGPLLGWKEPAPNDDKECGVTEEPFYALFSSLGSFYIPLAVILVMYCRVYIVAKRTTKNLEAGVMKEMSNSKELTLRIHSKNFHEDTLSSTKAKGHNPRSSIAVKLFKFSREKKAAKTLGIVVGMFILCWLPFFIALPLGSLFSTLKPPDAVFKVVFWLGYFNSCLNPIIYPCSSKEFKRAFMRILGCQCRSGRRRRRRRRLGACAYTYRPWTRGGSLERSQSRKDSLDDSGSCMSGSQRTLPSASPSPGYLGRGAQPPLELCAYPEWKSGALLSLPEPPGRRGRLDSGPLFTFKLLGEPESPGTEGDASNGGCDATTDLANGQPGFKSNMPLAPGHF
The series can be described thus: Radioligand binding, [3H]-prazosin, α1b. On the procedure:
(§1) For purposes of discussing a, adrenoceptor subtypes, the IUPHAR convention of using lower case letters to define molecular clones and upper case letters to indicate pharmacologically defined adrenoceptors has been followed. Compounds of formula I were evaluated in radioligand binding assays specific for α1A (rat submaxillary gland), α1b (hamster receptor expressed in mouse fibroblasts) and α1d (rat receptor expressed in mouse fibroblasts) using [^3H]-prazosin as the radioligand as described in Knepper, et al. J. Pharm.

The target in series [2] is T2, α1A (rat submaxillary gland) (Rattus norvegicus, UniProt P43140).
T2 construct: α1A (rat submaxillary gland); from tissue; host or cells: rat submaxillary gland
T2 sequence (P43140 1-466): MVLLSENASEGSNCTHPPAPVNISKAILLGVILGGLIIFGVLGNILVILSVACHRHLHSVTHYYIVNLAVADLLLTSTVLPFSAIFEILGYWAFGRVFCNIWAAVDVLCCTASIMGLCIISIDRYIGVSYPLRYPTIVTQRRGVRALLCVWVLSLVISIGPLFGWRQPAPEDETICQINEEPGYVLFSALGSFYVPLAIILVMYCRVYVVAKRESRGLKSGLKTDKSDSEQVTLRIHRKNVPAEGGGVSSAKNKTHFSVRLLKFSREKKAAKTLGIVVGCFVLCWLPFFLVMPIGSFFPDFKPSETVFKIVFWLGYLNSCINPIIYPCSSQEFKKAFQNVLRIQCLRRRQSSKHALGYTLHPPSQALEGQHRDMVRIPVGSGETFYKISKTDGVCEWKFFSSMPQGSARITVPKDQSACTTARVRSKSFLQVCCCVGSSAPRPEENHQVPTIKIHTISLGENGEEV
The series can be described thus: Radioligand binding, [3H]-prazosin, α1A. On the procedure:
as §1

Series [3] concerns the target T3, α1d (rat receptor expressed in mouse fibroblasts) (Rattus norvegicus, UniProt P23944).
T3 construct: expressed in transfected cells; host or cells: mouse fibroblasts
T3 sequence (P23944 1-561): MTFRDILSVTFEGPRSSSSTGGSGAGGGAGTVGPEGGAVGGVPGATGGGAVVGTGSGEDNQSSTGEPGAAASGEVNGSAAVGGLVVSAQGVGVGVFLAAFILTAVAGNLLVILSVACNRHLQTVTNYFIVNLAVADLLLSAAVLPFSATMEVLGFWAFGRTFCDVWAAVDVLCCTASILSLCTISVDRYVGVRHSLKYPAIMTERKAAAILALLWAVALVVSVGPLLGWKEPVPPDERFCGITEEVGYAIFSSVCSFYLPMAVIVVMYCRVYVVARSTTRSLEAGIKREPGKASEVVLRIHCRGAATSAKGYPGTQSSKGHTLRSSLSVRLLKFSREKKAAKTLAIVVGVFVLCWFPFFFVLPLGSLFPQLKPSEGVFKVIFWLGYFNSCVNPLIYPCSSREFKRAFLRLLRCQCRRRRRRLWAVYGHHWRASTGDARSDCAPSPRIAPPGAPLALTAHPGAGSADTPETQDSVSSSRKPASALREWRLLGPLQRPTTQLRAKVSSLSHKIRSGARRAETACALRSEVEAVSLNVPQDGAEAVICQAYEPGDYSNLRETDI
The series can be described thus: Radioligand binding, [3H]-prazosin, α1d. On the procedure: as §1

Setting [4] is: hamster receptor expressed in mouse fibroblasts, [3H]-prazosin, read-out: Radioligand Binding Ki α1b (Hamster).
Where [5] appears, read: rat receptor expressed in mouse fibroblasts, [3H]-prazosin, read-out: Radioligand Binding Ki α1d (Rat).

The molecule `CCS(=O)(=O)Nc1cccc2c1COC2c1c[nH]cn1.O=C(O)/C=C\C(=O)O` (stereo not shown) [Example 87, N-[1-(1H-imidazol-4-yl)-1,3-dihydro-2-benzofuran-4-yl]ethanesulfonamide Maleate] registered a melting point of 95 to 98 °C. In series [1], this molecule registered a Ki of 10000 nM. The molecule further returned a Ki in series [2] of 936 nM. This molecule also displayed a Ki in series [3] of 10000 nM.

The molecule `CCS(=O)(=O)Nc1cccc2c1CCCC2c1c[nH]c(C)n1.O=C(O)/C=C\C(=O)O` (stereo not shown) [Example 84, N-[5-(2-methyl-1H-imidazol-4-yl)-5,6,7,8-tetrahydro-1-naphthalenyl]ethanesulfonamide, Maleate] returned a melting point of 73 to 77 °C. Moreover, the inhibitory constant (Ki) in series [1] (setting [4]) was determined as 10000 nM. The affinity in series [2], expressed as Ki, was 792 nM. Also, in series [3] (setting [5]), the inhibitory constant (Ki) was determined as 10000 nM.

`CCS(=O)(=O)Nc1cccc2c1OCCC2c1c[nH]cn1` (stereo not shown) [Example 79, N-[4-(1H-imidazol-4-yl)-3,4-dihydro-2H-chromen-8-yl]ethanesulfonamide]: the Ki in series [1] (setting [4]) amounted to 10000 nM; in series [2], 638 nM; in series [3] (setting [5]) it was 10000 nM.

Consider `Cc1ccc(OC(=O)Nc2cccc3c2CCCC3c2c[nH]cn2)cc1` (stereo not shown) [Example 124, 4-methylphenyl 5-(1H-imidazol-4-yl)-5,6,7,8-tetrahydro-1-naphthalenylcarbamate], for which the Ki turned out to be 1470 nM in series [1], 451 nM in series [2] and 787 nM in series [3].

In the case of `CCN(C(=O)Nc1cccc2c1CCCC2c1c[nH]cn1)C(C)C` (stereo not shown) [Example 118, N-ethyl-N′-[5-(1H-imidazol-4-yl)-5,6,7,8-tetrahydro-1-naphthalenyl]-N-isopropylurea], the inhibition constant Ki in series [1] (setting [4]) turned out to be 10000 nM; in series [2], 329 nM; in series [3] (setting [5]), 920 nM.

As to `CCS(=O)(=O)Nc1cc(F)cc2c1CCCC2c1c[nH]cn1` (stereo not shown) [Example 131, N-[3-fluoro-5-(1H-imidazol-4-yl)-5,6,7,8-tetrahydro-1-naphthalenyl]ethanesulfonamide], the Ki in series [1] (setting [4]) was determined as 10000 nM; in series [2], 90 nM; in series [3] (setting [5]), 2160 nM.

Regarding `CCS(=O)(=O)Nc1cccc(C(=C(C)C)c2c[nH]cn2)c1` [Example 94, N-{3-[1-(1H-imidazol-4-yl)-2-methyl-1-propenyl]phenyl}ethanesulfonamide], the melting point was in the range of 152 to 155 °C. In addition, the Ki in series [1] (setting [4]) was determined as 1180 nM. This molecule yielded a Ki in series [2] of 1940 nM. For the same molecule, the Ki in series [3] (setting [5]) worked out at 173 nM.

For `CCOC(=O)Nc1cccc2c1CCCC2c1c[nH]cn1` (stereo not shown) [Example 120, ethyl 5-(1H-imidazol-4-yl)-5,6,7,8-tetrahydro-1-naphthalenylcarbamate], the inhibition constant (Ki) in series [1] (setting [4]) was determined as 10000 nM; in series [2], 164 nM; in series [3] (setting [5]), 2910 nM.

Consider `O=S(=O)(CC(F)(F)F)Nc1cccc2c1OCCC2c1c[nH]cn1` (single isomer, unassigned) [Example 88, 2,2,2-trifluoro-N-[4-(1H-imidazol-4-yl)-3,4-dihydro-2H-chromen-8-yl]ethanesulfonamide], for which the Ki was determined as 10000 nM in series [1] (setting [4]), 573 nM in series [2] and 10000 nM in series [3] (setting [5]).

`C=C(c1cccc(NS(=O)(=O)CC(F)(F)F)c1)c1c[nH]cn1.O=C(O)/C=C\C(=O)O` [Example 91, 2,2,2-trifluoro-N-{3-[1-(1H-imidazol-4-yl)vinyl]phenyl}ethanesulfonamide Maleate] gave a melting point of 149 to 153 °C. In addition, the Ki in series [1] stood at 10000 nM. The Ki in series [2] turned out to be 1520 nM. The molecule also gave a Ki in series [3] of 10000 nM.

Turning to `CC(C)(OC(=O)Nc1cccc2c1CCCC2c1c[nH]cn1)C(Cl)(Cl)Cl` (stereo not shown) [Example 122, 2,2,2-trichloro-1-dimethylethyl 5-(1H-imidazol-4-yl)-5,6,7,8-tetrahydro-1-naphthalenylcarbamate], the Ki in series [1] worked out at 10000 nM; in series [2], 1030 nM; in series [3], 1270 nM.
